We go through 1 compound from patent publication US11447577B2, “Cyclodextrin based polymers, methods, compositions and applications thereof” (priority 2016, dated 2022).

For one data set, the system named is nmf164 mice. Conditions: 4000 mg/kg; cited from earlier work.
A further data set concerns Npc1^nih mice. Nature of the data set: Efficacy study in Npc1^nih mouse model (body weight, balance beam test, survival). Format: in vivo. Conditions: HPβCD 4 mg/g s.c. weekly starting at PN7. The protocol:
Npc1^nih mouse model is a model for an early onset and faster progressing human diseases. This mouse model arises from the insertion of an active retrotransposon, a spontaneous mutation, which generated a frameshift resulting in a “knock out” of Npc1 gene: small amount of truncated Npc1 mRNA and no protein.
Npc1^nih mice received Polymer B (0.8 mg/g body weight) via injection (s.c.) at the scruff of the neck at PN4, PN7, and PN14. Another group of Npc1^nih mice received HPβCD (4 mg/g body weight; obtained from Sigma-Aldrich and used as received, CAS: 128446-35-5) via injected (s.c.) weekly starting at PN7. Control mice received PBS (sham). Mean volume of the injection was between 50 to 100 μL according to mice size. The body weight, motor behaviour, and survival rate of each group of mice were analyzed.
Example 5 was repeated for Npc1^nih mice receiving Polymer A (0.4 mg/g body weight) via injected (s.c.) weekly starting at PN7 and ending at PN70. The body weight and motor behaviours were analyzed. The results of these analyses were compared to the control mice results from Example 5. […]
The effects of various cyclodextrin polymers, doses, and injection schedules were tested on Npc1^nih mice. […] The body weight, motor behaviour, and survival rate of each group of mice were analyzed.

The nature of a further data set: in vivo. Further details: species or system mice. Conditions: mouse, sc, 500 mg/kg. The protocol: The effects of various cyclodextrin polymers were tested on WT mice. WT mice were injected with a single sub-cutaneous dose of 500 mg/kg of HPbCD, Polymer A, or Polymer B. PK measurements were taken every 2 hours via HPLC-UV measurements of mouse plasma. FIG. 28 presents the half-life results of this experiment. […] The recovery was 90% from plasma and tissues.

By bioavailability is commonly meant dose-corrected exposure relative to a reference, in per cent. A low value points to little systemic uptake. `CC(O)COC[C@H]1O[C@@H]2O[C@H]3[C@H](O)[C@@H](O)[C@@H](O[C@H]4[C@H](O)[C@@H](O)[C@@H](O[C@H]5[C@H](O)[C@@H](O)[C@@H](O[C@H]6[C@H](O)[C@@H](O)[C@@H](O[C@H]7[C@H](O)[C@@H](O)[C@@H](O[C@H]8[C@H](O)[C@@H](O)[C@@H](O[C@H]1[C@H](O)[C@H]2O)O[C@@H]8COCC(C)O)O[C@@H]7COCC(C)O)O[C@@H]6COCC(C)O)O[C@@H]5COCC(C)O)O[C@@H]4COCC(C)O)O[C@@H]3COCC(C)O` (stereo partly drawn) [HPβCD, Hydroxypropyl-β-cyclodextrin]: the Median survival in the data set on nmf164 mice was 175 to 185 days. Further, the “Body weight and motor behaviour assessment together (rescuing efficacy)” value in the data set on Npc1^nih mice was “rescuing efficacy”. Also, the Survival in the data set on Npc1^nih mice (control about 10-11 weeks) is recorded as 16-17 weeks. For the same compound, the bioavailability in “in vivo” was determined as 42%.
